These results are taken from patent US20260133203A1, “DETECTION OF FUMARATE-DERIVED MODIFICATION IN A TEST SAMPLE” (UNIVERSITY OF SOUTH CAROLINA, priority 2017, published 2026).

SMILES strings stand for the structures. Structures can show the parent of a compound that is named as a salt.

The test relates to rat primary neurons. The test is described as follows: Western blot detection of succinated proteins with anti-2SC antibody, without ester hydrolysis. As to conditions: 100 μM DMF, 24 hours, absence of ester hydrolysis. Format: cell-based. On the procedure:
Primary neurons from newborn rat brain cortices were isolated and cultured using an adaptation of methods described previously. Briefly, postnatal day 1 rats were sacrificed by decapitation, the brains were aseptically dissected, and cortices were separated from the rest of the brain in ice-cold Hibernate®-A medium (Life Technologies) containing 2% (v/v) B-27 supplement (Life Technologies) and 0.5 mM glutamine (Invitrogen™). The tissue was minced in fragments of about 1 mm3 with a scalpel and subjected to digestion with 2 mg/ml papain (Worthington) in the supplemented Hibernate®-A medium for 20 minutes at 30° C. in a shaker incubator set at 100 rpm. After thorough trituration through a fire-polished Pasteur pipette, the tissue was allowed to settle for 5 minutes and the supernatant was carefully layered on top of a discontinuous OptiPrep™ (Sigma-Aldrich™) gradient prepared in Hibernate®-A medium; the layers contained 35, 25, 20 and 15% OptiPrep™. […] After a centrifugation at 500 g for 5 min at room temperature, cells were resuspended in Neurobasal™—A medium containing 0.5 mM glutamine, 2% B-27 supplement, and 5 ng/ml bFGF (Invitrogen™); counted and plated on 24-well plates pretreated with 0.01% poly-L-lysine (Sigma-Aldrich™) at a density of 200,000 cells/well. […] The protein content in the different samples was determined by the Lowry assay. […]

Consider `COC(=O)/C=C/C(=O)OC` [DMF, dimethyl fumarate], for which the “detection of succinated proteins using the anti-2SC antibody” value is given as “only one band ˜50 kDa showing a significant increase in intensity”.
